We go through two molecules from PMC8227856, “Antibacterial Activity of a Promising Antibacterial Agent: 22-(4-(2-(4-Nitrophenyl-piperazin-1-yl)-acetyl)-piperazin-1-yl)-22-deoxypleuromutilin” (Molecules, 2021).

On the set-up of data set [1]: method as in PMID 25812151. To be noted: mice, oral acute toxicity; cited from earlier work.
For data set [2], the system named is MRSA ATCC 43300. In words: MIC, broth dilution micro-method. Particulars: Staphylococcus aureus, 24 h, MHB. Format: cell-based. The procedure: (§1) The MICs of NPDM against MRSA were determined by the broth dilution micro-method. Briefly, the stock solution of NPDM and the reference drug tiamulin were diluted by a two-fold serial dilution method with MHB in a 96-well plate to provide concentration ranges of 16~0.032 μg/mL. Then 100 μL of bacterial suspensions in log phase were diluted to 10^6 CFU/mL with MHB and were added to each well to make the final concentrations of the test compounds ranging from 8 to 0.016 μg/mL. The bacterial suspension (no drugs but solvent) was used as the positive control and MHB (no cultures) was used as the negative control. […] The MICs assay was carried out in triplicate.
(Broth dilution looks for growth in wells or tubes with falling amounts of substance.)

Data set [3] has as its system S. aureus 144 (clinical strain). In words: MIC, broth dilution micro-method. The format is cell-based. To be noted: Staphylococcus aureus, 24 h, MHB. How it is done: as §1
Data set [4] concerns S. aureus AD3 (clinical strain). The data set can be described thus: MIC, broth dilution micro-method. Format: cell-based. To be noted: Staphylococcus aureus, 24 h, MHB. How it is done: as §1
Data set [5] concerns S. aureus ATCC 29213. The data set can be described thus: MIC, broth dilution micro-method. Particulars: Staphylococcus aureus, ATCC29213, 24 h, MHB. Format: cell-based. How it is done:
as §1

The subject of data set [6] is MRSA ATCC 43300. The data set can be described thus: MBC assay. Format: cell-based, Staphylococcus aureus. Particulars: Staphylococcus aureus; MRSA ATCC 43300. The procedure: (§2) Determination of MBCs refers to the minimum concentrations of antibacterial agents required to kill 99.9% of the test microorganisms after 24 h of incubation. After obtaining the MICs value, the 96-well plates were placed at 37 °C and incubated for 24 h. One hundred microliter aliquots of the bacterial suspensions were taken from the wells without visible bacterial growth and then plated onto MHA plates. […] The MBC assay was conducted at least in triplicate.

Data set [7] deals with S. aureus 144 (clinical strain). In words: MBC assay. The format is cell-based. Particulars: Staphylococcus aureus. The procedure:
as §2

The test system of data set [8] is S. aureus AD3 (clinical strain). The data set can be described thus: MBC assay. Format: cell-based. To be noted: Staphylococcus aureus. The procedure:
as §2

For data set [9], the system named is S. aureus ATCC 29213. In words: MBC assay. Format: cell-based. Particulars: Staphylococcus aureus, ATCC29213. How it is done: as §2
Data set [10] has as its system MRSA ATCC 43300. In words: Time-kill assay. Format: cell-based, Staphylococcus aureus. The procedure: (§3) The MRSA and S. aureus in the logarithmic phase were diluted to 10^6 CFU/mL with MHB. Then diverse concentrations of NPDM or tiamulin were added to the bacteria solution reaching the final concentration of 1 × MIC, 2 × MIC, 4 × MIC, and 8 × MIC, respectively. All bacterial inoculums were cultured at 37 °C with shaking. A total of 100 μL samples were taken from the subcultures at 0, 3, 6, 9, and 24 h, respectively, and continuously diluted 10-fold in sterile saline; then, 25 μL diluent was plated on the MHA plate. All plates were placed at 37 °C for 24 h. The total number of colonies on the plate was counted, and the results were expressed as log (CFU/mL).

The subject of data set [11] is S. aureus ATCC 29213. The data set can be described thus: Time-kill assay. The format is cell-based, Staphylococcus aureus. The procedure: as §3
For data set [12], the system named is MRSA ATCC 43300. The data set can be described thus: Post-antibiotic effect (PAE) assay. The format is cell-based, Staphylococcus aureus. The procedure: The PAE was carried out as described in the literature. The MRSA was diluted to 10^6 CFU/mL in MHB. The NPDM or tiamulin was added into the bacteria solution at the final concentrations of 2 × MIC and 4 × MIC. Then all tubes were incubated at 37 °C for 1 h or 2 h. Each of the above inoculums was diluted 1000-fold with pre-warmed MHB to remove the test compounds and placed in a water bath at 37 °C immediately. One hundred microliters of suspension were taken from each culture, diluted 10-fold in sterile saline, and inoculated on MHA plates at 0, 1, 2, 4, and 6 h after inoculation. The total number comprising the colonies was counted after incubation at 37 °C for 20 h. The PAE was calculated referring to published methods. The experiment was performed in triplicate.

In data set [13] the test system is BRL-3A cells. In words: Cytotoxicity, MTT assay. Format: cell-based. Particulars: Rattus norvegicus; BRL-3A cells, MTT, 16 h incubation; read-out: 50% inhibition concentration (IC50), cell viability. The procedure: The cytotoxicity of NPDM was evaluated by the MTT assay as previously reported. Briefly, the medium containing 1 × 10^5 BRL-3A cells per 1 mL was seeded into a 96-well plate at 100 μL per well. After incubation for 48 h, media were replaced with 100 μL of serial dilutions of test compounds and incubated for 16 h. The absorbance (A) was measured at 490 nm by an automatic microplate reader (BIO-TEK Instrument Inc., Winooski, VT, USA). The cell viability was calculated according to Equation (1):(1) Cell viability (%) = (Asimple−Anegative)/(Apositive−Anegative)×100%
A graph was constructed by plotting the inhibition percentage versus various concentrations of NPDM and tiamulin, from which the IC50 of NPDM or tiamulin was calculated. The measurement was repeated in triplicate.
A general note: Tetrazolium dyes change colour on reduction, which living cells bring about.

Data set [14] relates to MRSA ATCC 43300. The data set can be described thus: Neutropenic mouse thigh infection model. The format is in vivo, Staphylococcus aureus. Particulars: 20 mg/kg i.v., neutropenic mice. The procedure: (§4) The mouse thigh infection model was performed as described in the literature with minor modifications. Briefly, female mice had induced neutropenia (neutrophil count ≤ 100/mm^3) by administered intraperitoneally cyclophosphamide on day 4 (150 mg/kg) and day 1 (100 mg/kg) before the experiment. A bacterial suspension of 0.1 mL (MRSA or S. aureus) containing approximately 10^7 CFU/mL microorganism was injected into the posterior thigh of mice to establish infection. Two hours after infection, mice were intravenously injected with NPDM or tiamulin at 20 mg/kg. After 24 h, thighs (six per group) were collected upon euthanasia. Then, thighs were weighed and homogenized with sterile saline. Tissue homogenate was continuously diluted 10-fold and plated on MHA plates for colony counts. SPSS 19 software was used for statistical analysis and t-tests.

Data set [15] deals with S. aureus ATCC 29213. In words: Neutropenic mouse thigh infection model. Particulars: 20 mg/kg i.v., neutropenic mice. The format is in vivo, Staphylococcus aureus. The procedure:
as §4

The test system of data set [16] is MRSA ATCC 43300. In words: Galleria mellonella infection model. The format is in vivo. To be noted: Staphylococcus aureus, 120 h; Galleria mellonella larvae infected with MRSA, survival over 5 days. How it is done:
The survival rate of Galleria mellonella was determined according to the literature with some modifications. Larvae of Galleria mellonella (16 per group) were injected with 10 μL of 10^8 CFU/mL MRSA inoculum into the last right proleg. Two hours after infection, larvae were injected with 10 μL of various doses (17.14, 25.71, 37.14, 57.14, and 85.71 mg/kg) of NPDM or tiamulin (used as reference drug) into the last left proleg. The larvae were maintained at 37 °C. Survival of the larvae was recorded daily for 5 days, and the ED50 was calculated.

≈ marks a conversion by molar mass, not a printed value. Some results are limits rather than exact numbers.

A word on the LD50: it is the dose expected to kill half of the subjects tested. Regarding `C=C[C@]1(C)C[C@@H](OC(=O)CSc2nnc(N)s2)[C@]2(C)[C@H](C)CC[C@]3(CCC(=O)[C@H]32)[C@@H](C)[C@@H]1O` [ATTM, 14-O-[(2-Amino-1,3,4-thiadiazol-5-yl)Thioacetyl] Mutilin], the LD50 in [1] is 2304.4 mg/kg.
By MIC is commonly meant the lowest concentration found to suppress growth. Low readings indicate a more susceptible organism, high ones a less susceptible organism. The term MBC denotes the lowest tested concentration that kills the bacteria rather than only halting them. The low end stands for greater bactericidal potency, the high end for weaker bactericidal potency. As usually defined, the ED50 is the midpoint of the dose-response relation. Read a high ED50 as weaker potency. With `C=C[C@]1(C)C[C@@H](OC(=O)CSCCN(CC)CC)[C@]2(C)[C@H](C)CC[C@]3(CCC(=O)[C@H]32)[C@@H](C)[C@@H]1O` [Tiamulin, reference compound], the MIC in [2], in data set [3], in data set [4] and in data set [5] was 0.5 µg/mL (≈ 1.01 µM) in each case. In addition, the minimum bactericidal concentration (MBC) came out at 0.5 µg/mL (≈ 1.01 µM) in data set [6], 2 µg/mL (≈ 4.05 µM) in [7], 2 µg/mL (≈ 4.05 µM) in data set [8] and 0.5 µg/mL (≈ 1.01 µM) in data set [9]. Further, in data set [10] (2 × MIC), the “Time-kill activity at 2 × MIC” value is reported as “bacteriostatic activity with a rebound growth”. In data set [10] (after incubation for 24 h), the “Concentration showing bactericidal activity (≥3 log10 CFU/mL decrease)” value is on record as not below 4 × MIC. Further, the “Concentration showing bacteriostatic effect” value in [11] is not below 2 × MIC. Also, the PAE in data set [12] (2 × MIC, exposure for 1 h) was found to be 1.53 h; in [12] (2 × MIC, exposure for 2 h), 1.65 h; in data set [12] (4 × MIC, exposure for 1 h), 1.90 h; in [12] (4 × MIC, exposure for 2 h), 2.04 h. Moreover, the IC50 in data set [13] amounted to 13.1 µg/mL (≈ 26.5 µM). For the same molecule, the “Reduction of mean MRSA counts in thighs vs untreated group” value in data set [14] (24 h) is ~ 1.15 log CFU/mL. Also, in [14] (24 h after treatment), the “Average amount of MRSA inoculum in thighs” value is on record as “(2.64 ± 1.95) × 10^8 CFU”. The “Average amount of S. aureus inoculum in thighs” value in data set [15] (24 h after treatment) was “(2.00 ± 1.21) × 10^8 CFU”. Besides, the “Reduction of mean bacterial counts in thighs vs untreated group” value in [15] (S. aureus, 24 h) is given as ~ 0.68 log CFU/mL. In data set [16], the ED50 was found to be 75.7 mg/kg.
